We go through eleven compounds from ChEMBL document CHEMBL4680155, “One-pot synthesis and molecular docking of some new spiropyranindol-2-one derivatives as immunomodulatory agents and in vitro antimicrobial potential with DNA gyrase inhibitor” (Eur J Med Chem, 2020).

The test system of assay [1] is Enterococcus faecalis. The assay can be described thus: Antibacterial activity against Enterococcus faecalis ATCC 29212 assessed as reduction in bacterial growth incubated for 1 day by paper disk diffusion method. The conditions noted are these: ATCC 29212, 24 h. The format is functional.
The subject of assay [2] is Candida albicans. The assay can be described thus: Antifungal activity against Candida albicans ATCC 10231 assessed as reduction in bacterial growth incubated for 1 day by paper disk diffusion method. The format is functional. The conditions noted are these: ATCC 10231, 24 h.
The subject of assay [3] is Staphylococcus aureus. The assay can be described thus: Antibacterial activity against Staphylococcus aureus ATCC 29213 assessed as reduction in bacterial growth incubated for 1 day by paper disk diffusion method. The format is functional. The conditions noted are these: ATCC 29213, 24 h.
In assay [4] the test system is Enterococcus faecalis. In words: Antibacterial activity against Enterococcus faecalis ATCC 29212 assessed as diameter of inhibition zone at 0.5 mg/ml incubated for 24 hrs by agar diffusion method. Format: functional. The conditions noted are these: read-out: DIZ.
Assay [5] relates to Aspergillus brasiliensis. The assay can be described thus: Antifungal activity against Aspergillus brasiliensis ATCC 16404 assessed as diameter of inhibition zone at 0.5 mg/ml incubated for 72 hrs by agar diffusion method. The format is functional. The conditions noted are these: read-out: DIZ.
In assay [6] the test system is Salmonella typhimurium. In words: Antibacterial activity against Salmonella typhi ATCC 6539 assessed as reduction in bacterial growth incubated for 1 day by paper disk diffusion method. The conditions noted are these: Salmonella enterica, ATCC 6539, 24 h. The format is functional, Salmonella enterica subsp. enterica serovar Typhimurium.
In assay [7] the test system is Escherichia coli. In words: Antibacterial activity against Escherichia coli ATCC 25922 assessed as reduction in bacterial growth incubated for 1 day by paper disk diffusion method. The format is functional. The conditions noted are these: ATCC 25922, 24 h.
Assay [8] has as its system Candida albicans. In words: Antifungal activity against Candida albicans ATCC 10231 assessed as diameter of inhibition zone at 0.5 mg/ml incubated for 24 hrs by agar diffusion method. Format: functional. The conditions noted are these: read-out: DIZ.
Assay [9] concerns Escherichia coli. In words: Antibacterial activity against Escherichia coli ATCC 25922 assessed as diameter of inhibition zone at 0.5 mg/ml incubated for 24 hrs by agar diffusion method. Format: functional. The conditions noted are these: read-out: DIZ.
Assay [10] relates to Staphylococcus aureus. The assay can be described thus: Antibacterial activity against Staphylococcus aureus ATCC 29213 assessed as diameter of inhibition zone at 0.5 mg/ml incubated for 24 hrs by agar diffusion method. The conditions noted are these: read-out: DIZ. Format: functional.
The test system of assay [11] is Aspergillus brasiliensis. The assay can be described thus: Antifungal activity against Aspergillus brasiliensis ATCC 16404 assessed as reduction in bacterial growth incubated for 3 days by paper disk diffusion method. Format: functional. The conditions noted are these: ATCC 16404, 72 h, time 3 day.
In assay [12] the test system is Salmonella typhimurium. In words: Antibacterial activity against Salmonella typhi ATCC 6539 assessed as diameter of inhibition zone at 0.5 mg/ml incubated for 24 hrs by agar diffusion method. The conditions noted are these: Salmonella enterica, read-out: DIZ. The format is functional, Salmonella enterica subsp. enterica serovar Typhimurium.

Values after ≈ are worked out from the molar mass of the structure shown.

As to `N#CC(C#N)=C1C(=O)Nc2ccc(S(=O)(=O)N3CCCCC3)cc21`, the MIC in the assay with Enterococcus faecalis [1] stood at 62.5 µg/mL (≈ 183 µM); with Candida albicans [2] it was 125 µg/mL (≈ 365 µM); in the assay with Staphylococcus aureus [3], 133 µg/mL (≈ 389 µM); in the assay with Salmonella typhimurium [6] it was 143 µg/mL (≈ 417 µM); in the assay with Escherichia coli [7] it was 125 µg/mL (≈ 365 µM); in the assay with Aspergillus brasiliensis [11] it was 62.5 µg/mL (≈ 183 µM). The zone of inhibition at 500 µg/mL in the assay on Enterococcus faecalis [4] came out at 17 mm; in the assay with Aspergillus brasiliensis [5], 16 mm; in the assay on Candida albicans [8], 16 mm; in the assay on Escherichia coli [9], 13 mm; in the assay on Staphylococcus aureus [10], 10 mm; in the assay on Salmonella typhimurium [12], 12 mm.

For `CCOC(=O)C1=C(N)OC(C)=C(C(C)=O)C12C(=O)Nc1ccc(S(=O)(=O)N3CCCCC3)cc12` (configuration not stated), the MIC was determined as 31.2 µg/mL (≈ 63.8 µM) in the assay with Enterococcus faecalis [1]; 71.1 µg/mL (≈ 145 µM) in the assay with Candida albicans [2]; 125 µg/mL (≈ 255 µM) in the assay with Staphylococcus aureus [3]; 71.1 µg/mL (≈ 145 µM) in the assay with Salmonella typhimurium [6]; 17.8 µg/mL (≈ 36.3 µM) with Escherichia coli [7]; 143 µg/mL (≈ 292 µM) in the assay on Aspergillus brasiliensis [11]. Besides, the zone of inhibition at 500 µg/mL turned out to be 20 mm with Enterococcus faecalis [4]; 10 mm in the assay with Aspergillus brasiliensis [5]; 13 mm with Candida albicans [8]; 16 mm in the assay with Escherichia coli [9]; 10 mm with Staphylococcus aureus [10]; 15 mm in the assay with Salmonella typhimurium [12].

As to `CCOC(=O)C1=C(C)OC(N)=C(C#N)C12C(=O)Nc1ccc(S(=O)(=O)N3CCOCC3)cc12` (configuration not stated), the MIC came to 88.3 µg/mL (≈ 186 µM) in the assay on Enterococcus faecalis [1]; 88.3 µg/mL (≈ 186 µM) with Candida albicans [2]; 133 µg/mL (≈ 281 µM) in the assay on Staphylococcus aureus [3]; 133 µg/mL (≈ 281 µM) with Salmonella typhimurium [6]; 31.2 µg/mL (≈ 65.9 µM) in the assay on Escherichia coli [7]; 167 µg/mL (≈ 351 µM) in the assay on Aspergillus brasiliensis [11]. The zone of inhibition at 500 µg/mL in the assay with Enterococcus faecalis [4] was 14 mm; with Aspergillus brasiliensis [5], 10 mm; in the assay with Candida albicans [8], 18 mm; with Escherichia coli [9], 19 mm; in the assay on Staphylococcus aureus [10] it was 16 mm; with Salmonella typhimurium [12], 15 mm.

For `CCOC(=O)/C(C#N)=C1\C(=O)Nc2ccc(S(=O)(=O)N3CCCCC3)cc21`, the MIC is 133 µg/mL (≈ 342 µM) in the assay with Enterococcus faecalis [1]; 125 µg/mL (≈ 321 µM) with Candida albicans [2]; 167 µg/mL (≈ 428 µM) with Staphylococcus aureus [3]; 125 µg/mL (≈ 321 µM) in the assay with Salmonella typhimurium [6]; 62.5 µg/mL (≈ 160 µM) in the assay with Escherichia coli [7]; 88.3 µg/mL (≈ 227 µM) with Aspergillus brasiliensis [11]. Also, the zone of inhibition at 500 µg/mL is 15 mm in the assay on Enterococcus faecalis [4]; 15 mm with Aspergillus brasiliensis [5]; 16 mm in the assay on Candida albicans [8]; 14 mm in the assay on Escherichia coli [9]; 7 mm with Staphylococcus aureus [10]; 11 mm in the assay on Salmonella typhimurium [12].

Consider `CCOC(=O)C1=C(C)OC(N)=C(C#N)C12C(=O)Nc1ccc(S(=O)(=O)N3CCCCC3)cc12` (configuration not stated), for which the MIC with Enterococcus faecalis [1] is 71.1 µg/mL (≈ 150 µM); in the assay on Candida albicans [2], 62.5 µg/mL (≈ 132 µM); in the assay with Staphylococcus aureus [3] it was 83.3 µg/mL (≈ 176 µM); in the assay with Salmonella typhimurium [6], 125 µg/mL (≈ 265 µM); in the assay with Escherichia coli [7], 35.5 µg/mL (≈ 75.2 µM); with Aspergillus brasiliensis [11] it was 143 µg/mL (≈ 302 µM). Further, the zone of inhibition at 500 µg/mL in the assay with Enterococcus faecalis [4] turned out to be 18 mm; in the assay with Aspergillus brasiliensis [5], 10 mm; in the assay with Candida albicans [8] it was 15 mm; with Escherichia coli [9] it was 17 mm; with Staphylococcus aureus [10], 17 mm; with Salmonella typhimurium [12], 13 mm.

On to `CCOC(=O)C1=C(N)OC(c2ccccc2)=C(C(=O)OCC)C12C(=O)Nc1ccc(S(=O)(=O)N3CCOCC3)cc12` (configuration not stated), for which the MIC in the assay with Enterococcus faecalis [1] came to 31.2 µg/mL (≈ 53.5 µM); in the assay on Candida albicans [2], 88.3 µg/mL (≈ 151 µM); in the assay on Staphylococcus aureus [3], 88.3 µg/mL (≈ 151 µM); in the assay on Salmonella typhimurium [6], 125 µg/mL (≈ 214 µM); in the assay on Escherichia coli [7], 35.5 µg/mL (≈ 60.9 µM); with Aspergillus brasiliensis [11], 133 µg/mL (≈ 228 µM). The zone of inhibition at 500 µg/mL with Enterococcus faecalis [4] came out at 20 mm; in the assay with Aspergillus brasiliensis [5], 9 mm; with Candida albicans [8], 14 mm; in the assay on Escherichia coli [9] it was 16 mm; in the assay with Staphylococcus aureus [10], 17 mm; in the assay with Salmonella typhimurium [12] it was 13 mm.

For `CCOC(=O)C1=C(C)OC(N)=C(C(=O)OCC)C12C(=O)Nc1ccc(S(=O)(=O)N3CCCCC3)cc12` (configuration not stated), the MIC in the assay with Enterococcus faecalis [1] was found to be 35.5 µg/mL (≈ 68.4 µM); in the assay with Candida albicans [2] it was 88.3 µg/mL (≈ 170 µM); in the assay on Staphylococcus aureus [3], 88.3 µg/mL (≈ 170 µM); in the assay on Salmonella typhimurium [6], 88.3 µg/mL (≈ 170 µM); in the assay on Escherichia coli [7] it was 71.1 µg/mL (≈ 137 µM); with Aspergillus brasiliensis [11], 133 µg/mL (≈ 257 µM). The zone of inhibition at 500 µg/mL came to 19 mm in the assay with Enterococcus faecalis [4]; 12 mm in the assay with Aspergillus brasiliensis [5]; 12 mm in the assay on Candida albicans [8]; 12 mm in the assay on Escherichia coli [9]; 13 mm with Staphylococcus aureus [10]; 13 mm with Salmonella typhimurium [12].

For `CCOC(=O)C1=C(c2ccccc2)OC(N)=C(C#N)C12C(=O)Nc1ccc(S(=O)(=O)N3CCOCC3)cc12` (configuration not stated), the minimum inhibitory concentration (MIC) is 7.81 µg/mL (≈ 14.6 µM) in the assay on Enterococcus faecalis [1]; 62.5 µg/mL (≈ 116 µM) in the assay on Candida albicans [2]; 125 µg/mL (≈ 233 µM) in the assay on Staphylococcus aureus [3]; 133 µg/mL (≈ 248 µM) in the assay on Salmonella typhimurium [6]; 88.3 µg/mL (≈ 165 µM) with Escherichia coli [7]; 125 µg/mL (≈ 233 µM) in the assay on Aspergillus brasiliensis [11]. Besides, the zone of inhibition at 500 µg/mL with Enterococcus faecalis [4] was found to be 19 mm; in the assay with Aspergillus brasiliensis [5], 12 mm; in the assay with Candida albicans [8], 16 mm; with Escherichia coli [9], 14 mm; with Staphylococcus aureus [10], 13 mm; in the assay on Salmonella typhimurium [12], 11 mm.

Take `CC(=O)C1=C(C)OC(N)=C(C#N)C12C(=O)Nc1ccc(S(=O)(=O)N3CCCCC3)cc12` (configuration not stated): the MIC with Enterococcus faecalis [1] was determined as 167 µg/mL (≈ 376 µM); in the assay with Candida albicans [2], 71.1 µg/mL (≈ 161 µM); in the assay on Staphylococcus aureus [3] it was 167 µg/mL (≈ 376 µM); with Salmonella typhimurium [6], 88.8 µg/mL (≈ 201 µM); with Escherichia coli [7] it was 62.5 µg/mL (≈ 141 µM); with Aspergillus brasiliensis [11], 125 µg/mL (≈ 282 µM). The zone of inhibition at 500 µg/mL in the assay with Enterococcus faecalis [4] came out at 15 mm; in the assay on Aspergillus brasiliensis [5], 14 mm; in the assay on Candida albicans [8] it was 16 mm; with Escherichia coli [9], 15 mm; with Staphylococcus aureus [10], 8 mm; in the assay with Salmonella typhimurium [12], 15 mm.

As to `CCOC(=O)C1=C(C)OC(N)=C(C(=O)OCC)C12C(=O)Nc1ccc(S(=O)(=O)N3CCOCC3)cc12` (configuration not stated), the MIC with Enterococcus faecalis [1] came to 62.5 µg/mL (≈ 120 µM); with Candida albicans [2] it was 125 µg/mL (≈ 240 µM); in the assay with Staphylococcus aureus [3], 125 µg/mL (≈ 240 µM); in the assay with Salmonella typhimurium [6], 142 µg/mL (≈ 273 µM); in the assay on Escherichia coli [7], 31.2 µg/mL (≈ 59.9 µM); in the assay with Aspergillus brasiliensis [11], 133 µg/mL (≈ 256 µM). Besides, the zone of inhibition at 500 µg/mL amounted to 16 mm with Enterococcus faecalis [4]; 11 mm with Aspergillus brasiliensis [5]; 13 mm with Candida albicans [8]; 18 mm in the assay with Escherichia coli [9]; 14 mm with Staphylococcus aureus [10]; 10 mm with Salmonella typhimurium [12].

For the compound `CCOC(=O)C1=C(N)OC(c2ccccc2)=C(C(C)=O)C12C(=O)Nc1ccc(S(=O)(=O)N3CCCCC3)cc12` (configuration not stated), the MIC was determined as 17.8 µg/mL (≈ 32.2 µM) in the assay on Enterococcus faecalis [1]; 62.5 µg/mL (≈ 113 µM) in the assay on Candida albicans [2]; 88.3 µg/mL (≈ 160 µM) with Staphylococcus aureus [3]; 88.3 µg/mL (≈ 160 µM) with Salmonella typhimurium [6]; 17.8 µg/mL (≈ 32.2 µM) with Escherichia coli [7]; 125 µg/mL (≈ 227 µM) with Aspergillus brasiliensis [11]. In addition, the zone of inhibition at 500 µg/mL in the assay with Enterococcus faecalis [4] was determined as 20 mm; in the assay on Aspergillus brasiliensis [5] it was 17 mm; in the assay on Candida albicans [8], 13 mm; in the assay with Escherichia coli [9] it was 20 mm; in the assay on Staphylococcus aureus [10], 18 mm; with Salmonella typhimurium [12] it was 15 mm.
